According to PubChem BioAssay AID1259340 (Broad Institute, 2017):
Calls of active or inactive are those of the source.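 The calls were made as follows: active = AC50 no more than ten times the top concentration tested; inconclusive = flat fit with inhibition between 30% and 70%, or unusable fit; inactive = AC50 beyond ten times the top concentration.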

molecular target: Caspase recruitment domain-containing protein 9 (Homo sapiens) + B-cell lymphoma/leukemia 10 (Homo sapiens) (UniProt Q9H257+O95999); experiment: disruptors of CARD9-BCL10 binding, dose response, selectivity assay for CARD9-TRIM62 disruptor project, cell lysate, HEK293FT lysates, Luminex bead ELISA (AID 1259340); settings: not given
Sequence (O95999 whole entry, looked up, the tested form may be a part): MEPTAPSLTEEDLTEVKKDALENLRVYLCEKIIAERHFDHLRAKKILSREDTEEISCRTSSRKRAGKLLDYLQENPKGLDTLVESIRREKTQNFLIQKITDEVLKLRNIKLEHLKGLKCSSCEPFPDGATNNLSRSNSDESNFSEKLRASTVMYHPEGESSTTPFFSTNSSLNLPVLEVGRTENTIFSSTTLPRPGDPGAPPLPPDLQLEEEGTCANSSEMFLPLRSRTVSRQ
Sequence (Q9H257 whole entry, looked up, the tested form may be a part): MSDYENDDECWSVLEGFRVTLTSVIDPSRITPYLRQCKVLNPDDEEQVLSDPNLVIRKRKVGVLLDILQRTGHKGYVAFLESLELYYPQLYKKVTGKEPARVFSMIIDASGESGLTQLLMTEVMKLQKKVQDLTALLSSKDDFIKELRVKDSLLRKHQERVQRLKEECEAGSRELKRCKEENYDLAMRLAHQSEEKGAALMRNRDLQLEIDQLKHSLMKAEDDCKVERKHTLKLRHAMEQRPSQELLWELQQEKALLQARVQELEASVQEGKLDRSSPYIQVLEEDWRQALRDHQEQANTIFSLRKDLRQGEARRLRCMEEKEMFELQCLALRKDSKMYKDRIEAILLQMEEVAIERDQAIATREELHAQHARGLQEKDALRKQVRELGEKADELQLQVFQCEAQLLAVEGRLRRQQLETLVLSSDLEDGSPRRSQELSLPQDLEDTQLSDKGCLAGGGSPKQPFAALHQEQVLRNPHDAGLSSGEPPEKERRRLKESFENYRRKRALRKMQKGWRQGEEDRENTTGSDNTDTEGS

Row | Compound | AC50
1 | Cc1ccc(Nc2nc(C(=O)Nc3ccc(Cl)cc3)nc3ccccc23)cc1 | > 160 µM (inactive)
2 | O=C(Nc1nccs1)c1cc(-c2ccco2)nc2ccccc12 | > 160 µM (inactive)
3 | C(=C\c1ccco1)/c1nc2ccccc2[nH]1 | 58.6 µM
4 | O=C(Nc1nncs1)c1cc(-c2ccco2)nc2ccccc12 | 68.5 µM
5 | O=C(NCC1CCCO1)c1cc(-c2ccco2)nc2ccccc12 (stereo not given) | > 160 µM (inactive)
6 | O=C(NCc1ccco1)c1c2c(nc3ccccc13)CCC2 | > 160 µM (inactive)
7 | O=C(O)c1ccc2nc(-c3ccco3)c(-c3ccco3)nc2c1 | 19.6 µM
8 | COc1cccc(NC(=O)CN(C)C(=O)c2cc3c(s2)CCC3)c1 | > 160 µM (inactive)
9 | O=S(=O)(c1ccc2nc(-c3ccco3)c(-c3ccco3)nc2c1)N1CCOCC1 | 20.3 µM
10 | NC(=O)c1ccc(CN2C(=O)C3(CCNCC3)Nc3ccccc32)cc1 | > 160 µM (inactive)
11 | C=CC(=O)N1CCCC2(CCN(CCN3CCCC3)C2=O)C1 (stereo not given) | 22.7 µM
12 | O=C(O)CCc1ccc(-c2cccs2)n1NC(=O)c1ccco1 | > 160 µM (inactive)
13 | CC(=O)c1cccc(OCC(=O)N(C)CC(=O)NCc2ccco2)c1 | > 160 µM (inactive)
14 | O=C1CC2(CCN(C(=O)Nc3ccccc3)CC2)CN1Cc1ccc(Cl)cc1 | 79.7 µM
15 | Cc1ccc2cc(CN(Cc3ccco3)S(C)(=O)=O)c(=O)[nH]c2c1 | > 160 µM (inactive)
16 | Cc1ccc(-c2nnc(-c3nc(Nc4nc5ccccc5s4)c4ccccc4n3)o2)cc1 | 64 µM
17 | Nc1ccc2ncccc2c1N | 16.1 µM
18 | c1ccc(-c2nc(-c3ccco3)n3ccccc23)cc1 | > 160 µM (inactive)

same assay, conditions: at 80 µM (top of the series)

Row | Compound | activity change, negative = inhibition
19 | O=C(NCCCN1CCOCC1)c1cc(-c2ccco2)nc2ccccc12 | inactive
20 | CCc1nccn1CCC(=O)N1C[C@H](CO)C[C@H](CN2CCCC2)C1 | inactive
21 | Cc1ccc(C(=O)Nc2ccc(N3CCC(C(N)=O)(N4CCCCC4)CC3)c(C(=O)O)c2)cc1 | inactive
22 | Cc1c(C(=O)OCC2CCCO2)[nH]c2c1C(=O)CC(c1ccco1)C2 (stereo not given) | inactive
23 | O=C(CN1CCOC1=O)N1CCC2(CCC(=O)N(CCCn3ccnc3)C2)CC1 | inactive
24 | O=C(O)COc1ccc(-n2cccc2)cc1 | inactive
25 | CCCN1CCCn2nc(CNC(=O)[C@H]3CC[C@@H](N)C3)cc2C1 | inactive
26 | NC(=O)C1(N2CCCCC2)CCN(c2ccc(NC(=O)c3cccc(Cl)c3)cc2C(=O)O)CC1 | inactive
27 | CC1=CCC(C(=O)O)C(C(=O)NC2CCCCC2)C1 (stereo not given) | inactive
28 | CC1CCN(c2nc(-c3ccco3)c3c(c2C#N)CC(C)(C)OC3)CC1 | inactive
29 | Cc1cncc(-c2ccc(S(N)(=O)=O)cc2F)c1 | inactive
30 | O=c1/c(=C/c2ccco2)sc2nc3ccccc3n12 | inactive
31 | Cc1cccc(Nc2nc(C(=O)Nc3cc(F)ccc3F)nc3ccccc23)c1 | inactive
32 | O=C(Cn1c(=O)cc(C(=O)N2CCc3ccccc3C2)c2ccccc21)NCc1ccc2c(c1)OCO2 | inactive
33 | CC(C)C(CC(=O)NCc1ccco1)c1ccco1 (stereo not given) | inactive
34 | OCc1ccc(O)c2ncccc12 | inactive
35 | O=S(=O)(Nc1nccs1)c1ccc(-n2cccc2)cc1 | inactive
36 | O=S(=O)(Nc1nc2ccc(S(=O)(=O)N3CCCCC3)cc2s1)c1ccccc1 | inactive
37 | O=C(Nc1ccc(OCC(=O)N2CCOCC2)cc1)c1cncc(Br)c1 | inactive
38 | O=C(NCCc1ccccc1)c1cc2cccnc2n(Cc2ccccc2)c1=O | inactive
39 | Cc1ccc(N2C(=O)c3ccccc3C2C(=O)c2ccc(O)cc2O)cc1 (stereo not given) | inactive
40 | c1coc(-c2cn3ccc4ccccc4c3n2)c1 | inactive
